Experimental data from article PMC7125190, “Native/citrullinated LL37-specific T-cells help autoantibody production in Systemic Lupus Erythematosus” (Scientific Reports, 2020).

What was measured:
[1] = system: SLE/CLE skin and kidney, HD skin; assay: Immunohistochemistry and laser scanner confocal microscopy of tissues; design: species or system human; details: for presence in SLE and CLE target organs: IHC and LSM, skin (dermis) and kidney; for kidney biopsies with DNA filaments bound to LL37 and/or cit-LL37: lupus nephritis, four of seven biopsies
Description: Immunohistochemistry and laser scanner confocal microscopy (LSM)
We performed staining on […] paraffin or frozen sections of human lupus erythematosus skin specimens obtained from CHUV, Dept. of Dermatology. Staining with anti-cit-LL37 Mabs was performed using the antibodies Mab142 and Mab137 at 1:40 dilution, followed by incubation with a […] (Abcam). HRP and DAB (DAKO) were used to develop the color. Nuclear staining was performed with Mayer’s haematoxylin. […]
Frozen or paraffin-included SLE renal biopsies, obtained from Policlinico Umberto I, Rome, IT or CHUV Lausanne, CH, were stained, after saturation with blocking buffer (PBS, 0.05% tween 20, 4% BSA) for 1 hour at room temperature. Bopsies in paraffin were stained after de-paraffination in xilene (5 minutes, two times), followed by passages in: absolute ethanol (3 minutes), 95% ethanol in water (3 minutes), 80% ethanol in water (3 minutes), 70% ethanol in water (3 minutes), and antigen retrieval (5 minutes at […]
95°C in 10 mM sodium citrate, pH 6.0). Antibodies (Mab142 or Mab137) were added at 1:50 dilution (all diluited in blocking buffer) (isotype control was added at 1:100 concentration) for 1 hour at room temperature in a humidified chamber. Anti-C9 (Atlas antibodies, Sweden) was added at 1:50 dilution (all antibody dilutions were in blocking buffer). Slides were washed three times for 3 minutes under agitation with PBS 0.1% tween 20 and incubated with donkey anti-mouse or anti-rabbit secondary antibody or mouse anti-goat antibody, conjugated with AlexaFluor 647, Alexa Fluor 568 or 594 or AlexaFluor 488, depending on the combinations of markers analyzed (in humidified chamber). Slides were washed again, and mounted in Prolong Gold anti-fade media containing a DNA dye (DAPI) (Molecular Probes), before analysis with a confocal microscope, objectives 20x, or 40x and 60x in oil immersion. Images were taken by a FV1000 confocal microscope (Olympus, Tokyo, Japan), using a Olympus planapo objective 40x or 60x oil A.N. 1,42.
Excitation light was obtained by a Laser Dapi 408 nm for DAPI, an Argon Ion Laser (488 nm) for FITC (Alexa 488), a Diode Laser HeNe (561 nm) for Alexa 568, and a Red Diode Laser (638 nm) for Alexa 647. DAPI emission was recorded from 415 to 485 nm, FITC emission was recorded […]
For quantification of LL37 and cit-LL37 in renal/skin biopsies, we counted the specific staining spots in at least 3 sections from each patient, by using the ImageJ64 software. For comparison we also counted the staining in HD skin, as background staining. To estimate the percent of co-localization between IgG and LL37 staining we measured, in three sections for each patient, the total IgG or LL37 staining in single color images and than on merge images we assessed the spots that indicates the co-localization IgG/LL37.
Reactivity of mouse anti-LL37 monoclonal antibodies (Mab137 and Mab142) Biotinylated native LL37, cit-SCR LL37, SCR LL37, cit-LL37, and the other citrullinated and non-citrullinated control antigenic peptides (also biotinylated) were diluted at 2-to-5 µg/mL and added to the wells over night at 4°C. Excess unbound peptides were washed away with wash buffer (PBS

CD3+CD4+ T-cells = assay: T-cell proliferation assay (BrdU incorporation of PBMC); format: cell-based, human; details: for CLE patients whose CD3+CD4+ cells proliferated: CLE PBMC; for CLE patients whose CD3+CD4+ cells proliferated / SLE patients whose CD3+CD4+ cells proliferated: day 6, BrdU; for CLE patients whose CD3+CD4+ cells proliferated / PSO patients whose T-cells responded / RA patients whose T-cells proliferated / SLE patients whose CD3+CD4+ cells proliferated: positive if SI ≥3; for T-cell proliferation in HD/SSc: HD (LL37, cit-LL37) and SSc (LL37) PBMC; for PSO patients whose T-cells responded: PSO PBMC, ten of twenty-nine (LL37), 3 of 21 (cit-LL37); for PSO patients whose T-cells responded / RA patients whose T-cells proliferated: BrdU; for RA patients whose T-cells proliferated: RA PBMC, two of 15; for SLE patients whose CD3+CD4+ cells proliferated: SLE PBMC, 18 of 40 (LL37), 11 of 25 (cit-LL37); for Change of T-cell response on follow-up: eight SLE patients, up to 36 months of successful standard therapy, statistically significant for native LL37; for Proliferative response in LL37-non-responders: three SLE LL37-non-responders
Description: PBMCs were purified, from EDTA-treated blood, on Ficoll-Hypaque (Pharmacia Fine Chemicals, Uppsala, Sweden) were incubated (10^5 cells/well) in 96-well-flat-bottom-microplates (BD) in T cell- […]
penicillin, and 100 μg/mL streptomycin), with/without peptides. We performed assays on fresh cells, within 1-to-3 hours from collection, or on PBMCs frozen in 90% FCS-10%DMSO, whose viability we assessed by Trypan blue exclusion, at inverted microscope.
At day3 and 5, BrdU was added (1 μg/mL). BrdU-incorporation was detected by APC-labeled anti-BrdU antibody (BD Pharmingen), after surface staining by flow cytometry. Internal control for T-cell viability and proliferation was PHA treatment (2 μg/mL). SI for proliferation was calculated by dividing percent of BrdU-staining in the presence of each peptide used to stimulate cells by percent of BrdU-staining in the absence of peptide stimulation. SI for proliferation was considered positive when>3. This cut-off was obtained by calculating the mean+2DS [1.5 + 2 (0.6)] (of the stimulation indexes calculated as above) of the proliferation of HD.
Basal % of proliferation was set using, as reference, an isotype matched antibody staining (APC- […]
Assays were repeated twice with each patient. In rare cases in which background proliferation exceed antigen-specific proliferation the assay was repeated three times. Concomitant phenotype analysis of LL37-responder T-cells included staining for CD4, CD8, CXCR5, PD1, ICOS, CCR6. […]

Row | Substance | presence in SLE and CLE target organs [1] | kidney biopsies with DNA filaments bound to LL37 and/or cit-LL37 [1] | CLE patients whose CD3+CD4+ cells proliferated (CD3+CD4+ T-cells) | T-cell proliferation in HD/SSc (CD3+CD4+ T-cells) | PSO patients whose T-cells responded (CD3+CD4+ T-cells) | RA patients whose T-cells proliferated (CD3+CD4+ T-cells) | SLE patients whose CD3+CD4+ cells proliferated (CD3+CD4+ T-cells) | Proliferative response at remission (CD3+CD4+ T-cells; SLE at remission (T1), only at the highest dose) | Proliferative response at lower antigen dose, cit-LL37 versus native (CD3+CD4+ T-cells; SLE, low dose 1 μg/mL, 12 LL37/cit-LL37 responders) | Change of T-cell response on follow-up (CD3+CD4+ T-cells) | Proliferative response in LL37-non-responders (CD3+CD4+ T-cells) | expression in HD skin ([1]; healthy donor skin)
1 | LLGDFFR(cit)KSKEKIGKEFKR(cit)IVQR(cit)IKDFLR(cit)NLVPR(cit)TES [cit-LL37, citrullinated LL37 (citrullinated at all five arginin positions)] | detected | 57% | 3 of 5 | no responses in HD | 14% | 13% | 44% | still significant only in response to cit-LL37 | T-cells responded better to cit-LL37 than the native counterpart at lower antigen doses | decreased | no proliferation | 
2 | LLGDFFRKSKEKIGKEFKRIVQRIKDFLRNLVPRTES [LL37, native LL37, antimicrobial peptide, 37 aa] | detected | 57% | three of five | No SSc or HD showed a significant response | 34% | 13% | 45% |  |  | decreased | no proliferation | did not express significant amounts
